Common to all, as to assay: NCI-60 cell line screen, 48 h
The test system of test [1] is T-47D breast.
Test [2] deals with NCI-H460 lung.
For test [3], the system named is CAKI-1 renal.
The subject of test [4] is HT29 colon.
The test system of test [5] is NCI-H23 lung.
The subject of test [6] is HOP-62 NSCLC.
Test [7] relates to SNB-75 CNS.
Test [8] relates to U251 CNS.
For test [9], the system named is SF-295 CNS.
For test [10], the system named is OVCAR-3 ovarian.
The test system of test [11] is SK-MEL-28 melanoma.
For test [12], the system named is BT-549 breast.
Test [13] deals with A498 renal.
The subject of test [14] is HCT-116 colon.
The subject of test [15] is MALME-3M melanoma.
The test system of test [16] is SNB-19 CNS.
For test [17], the system named is NCI-H522 lung.

The structures appear in SMILES notation.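 Results reflect a 48-hour exposure of cells in 96-well plates to compound at five concentrations. TGI: concentration producing complete growth inhibition.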

In the case of `OCC1OC(NC(=S)NCCC(F)(F)C(F)(F)C(F)(F)C(F)(F)C(F)(F)C(F)(F)F)C(O)C(O)C1O` (stereo unspecified), the TGI in [1], in [2], in [3], in [4], in test [5] and in test [6] was more than 100 µM each time. Also, the TGI in [7], in test [8], in [9], in [10], in [11] and in test [12] was more than 100 µM throughout. In addition, the TGI in [13] is 56.6 µM; in test [14], more than 100 µM; in test [15], more than 100 µM; in test [16], more than 100 µM.

`COc1ccc(CC2Cc3ccccc3CCN2)cc1OC` (stereo unspecified): the TGI in [1], in [2], in test [3], in [4], in test [5] and in test [6] was more than 50 µM in each case. In addition, the TGI in [7], in test [8], in test [9], in test [10], in [11] and in test [12] was more than 50 µM in each case. Further, the TGI in test [13], in [14], in test [15] and in test [16] was more than 50 µM throughout.

For the compound `O=c1[nH]c2cccc([N+](=O)[O-])c2c(=O)n1-c1ccc(Cl)cc1`, the TGI amounted to 26.8 µM in [1]; 25.8 µM in test [2]; 19.5 µM in [3]; 26.1 µM in [4]; 42.1 µM in test [5]; 61 µM in [6]. The TGI in [8] amounted to 59.7 µM; in test [9] it was 12.2 µM; in test [10] it was 23.5 µM; in test [11], 26.8 µM; in [12] it was 23.7 µM; in test [13], 30.6 µM. Moreover, the values for the TGI in test [14], in test [15] and in test [16] were 61.7 µM, 27.6 µM and 45 µM, respectively.

`CC[C@]12C=CCN3CC[C@@]4(c5cc(Br)c(OC)c([N+](=O)[O-])c5N(C)[C@H]4[C@@](O)(C(=O)OC)[C@@H]1OC(C)=O)[C@@H]32`: the TGI in test [1], in test [2], in test [3], in test [4], in [5] and in test [6] was more than 100 µM throughout. The TGI in test [7], in test [8], in test [9], in test [10], in test [11] and in test [12] was more than 100 µM throughout. The TGI in [13], in [14], in test [15] and in test [16] was more than 100 µM throughout.

On to `CCSc1nnc(Sc2c3ccccc3nc3ccccc23)s1`, for which the TGI in test [1] is more than 44.2 µM; in test [2], 42.5 µM; in test [3], 15.5 µM; in [4], more than 55.6 µM; in [5], 53.1 µM; in test [6] it was more than 100 µM. In addition, the TGI in [7] was more than 100 µM; in test [8] it was more than 57.9 µM; in test [9] it was more than 100 µM; in test [10] it was 29.4 µM; in test [11] it was more than 59.1 µM; in test [12], 31.7 µM. Besides, the TGI in test [13] is more than 62.4 µM; in [14], 23.5 µM; in test [15] it was more than 100 µM; in [16] it was more than 84.5 µM.

Consider `COc1cc(C2C3=C(COC3=O)OC(C)(C)Oc3cc4c(cc32)OCO4)cc(OC)c1O` (stereo unspecified), for which the TGI in [1] was more than 100 µM; in [17], 6.72 µM; in test [2], more than 100 µM; in test [3], more than 46.4 µM; in test [4], more than 23.3 µM; in [5] it was more than 22.1 µM. Moreover, the TGI is more than 100 µM in [6]; more than 100 µM in test [8]; more than 100 µM in test [10]; more than 100 µM in [11]; more than 100 µM in [12]; 68 µM in [13]. Moreover, the TGI in test [14] was more than 20.8 µM; in [15], more than 100 µM; in test [16], more than 100 µM.

For `CC(C)(C)c1cc(S(=O)(=O)O)c2oc(-c3ccccc3)cc(=O)c2c1`, the TGI in test [1], in test [17], in [2], in test [3], in test [4] and in test [5] was more than 100 µM each time. The TGI in test [6], in test [7], in test [8], in [9], in test [10] and in [11] was more than 100 µM in each case. The TGI in test [12], in [14], in test [15] and in [16] was more than 100 µM in each case.

`COc1ccccc1C[C@@H]1OC2(C=CC(=O)CC2SC(=O)c2ccccc2)O[C@H]1Cc1ccccc1OC` (stereo partly specified): the TGI was found to be 5.64 µM in [1]; 7.87 µM in test [2]; 5.24 µM in test [3]; 3.14 µM in [4]; 5.43 µM in [5]; 3.03 µM in [6]. The TGI was determined as 3.28 µM in test [7]; 2.81 µM in test [8]; 4.14 µM in test [9]; 4.93 µM in test [10]; 3.22 µM in test [11]; 2.74 µM in test [12]. The TGI is 5.67 µM in test [13], 0.651 µM in [14], 4.26 µM in test [15] and 4.94 µM in [16].

Values taken from PubChem BioAssay (NCI).
